Assay results from patent US6858588B2, “Nitrile glycoside useful as a bioenhancer of drugs and nutrients, process of its isolation from moringa oleifera” (Council of Scientific and Industrial Research, priority 2003, dated 2005).

Legend:
M. smegmatis (MC^2 155) = assay: Bioactivity enhancement of antibiotics (killing, broth/titre assay) against M. smegmatis; type: cell-based, Mycobacterium smegmatis; settings: Table 5
B. subtilis (MTCC121) = assay: Bioactivity enhancement of antibiotics (killing, broth/titre assay) against B. subtilis; type: cell-based, Bacillus subtilis; settings: Table 5
E. coli (CA8000) = assay: Bioactivity enhancement of antibiotics (killing, broth/titre assay) against E. coli
C. albicans = assay: Enhancement of anticandidial activity of clotrimazole, broth assay
E. coli DH5α = assay: Enhancement of bacterial transformation with pUC18 plasmid DNA, DH5α
Experimental: (§1) Overnight grown bacterial E. coli DH5α (Sambrook at al^28) cells were diluted to 10 folds in growth medium and treated with niaziridin @1-10 μg/ml for 4 hours at 37° C. in a shaker (200 RPM).
(§2) These log phase cells were then treated with calcium chloride to induce competence and then transformed with pUC18 plasmid DNA and plated on Luria agar plates containing 100 μg/ml ampicillin.

E. coli CA8000 = assay: Enhancement of bacterial transformation with pUC18 plasmid DNA, CA8000
Experimental: as §1, §2

[1] = system: M.tuberculosis H37Rv (ATCC 27294); assay: Bioactivity enhancement of anti-tubercular drugs, radiometric BACTEC 460 TB system; type: cell-based, Mycobacterium tuberculosis; settings: BACTEC 460, 12 days
[2] = system: E. coli cells (CA 8000), λ phage; assay: λ phage adsorption on E. coli cells; settings: Cells pretreated with niaziridin @ 1 ug/ml
Experimental: Overnight grown bacterial culture (Escherichia coli, CA 8000) was divided into 5 ml of aliquot each in screw cap tubes. One of the tube with the bacterial culture was treated with niaziridin to a final concentration of 1 μg/ml. Both the control and the treated tubes were incubated at 37° C. for 4 hours. The cultures were then infected with λ phage (MOI=10) for 10 minutes at 37° C. (for adsorption) followed by centrifugation at 10000 RPM for 10 minutes at 4° C.
The supernatant and the pellets for both treated and untreated cultures were then compared for the phage titer by plating on top agar containing sensitive bacteria at different dilutions.

[3] = Bioavailability test using gastro-intestinal epithelium (U-tube); type: in vitro ADME, goat; settings: in combination; FIG. 3
Source text: Specially designed U-tubes of glass consisting of two components (opposite-L type) were used in which one open end of an L-shaped was tapered to fit within the end of the other L-tube (as described in U.S. Pat. No. 6,410,059). The membrane of goat gut (initial part) was stretched and fixed to act as the barrier between the two ends such that by joining the two L-tubes, a U-tube was made. Sterile distilled water was then filled in both the sides to equal height/level. The antibiotic/compound was added to the donor tube (tapered) and through spectro-photometer, the transfer of molecule was observed using UV and visible absorption maxima of the respective molecules by taking the OD at defined wavelengths (264 nm for isoniazid).

[4] = anaesthetized rat, 1-10 mg/kg I.V; cited from earlier work
[5] = human volunteers; formulation containing rifampicin, pyrazinamide and isoniazid; cited from earlier work
[6] = Cells pretreated with niaziridin at 1 ug/ml
[7] = Cells pretreated with niaziridin at 10 ug/ml
[8] = Amp (0.1) + Niaziridin 1.0 μg/ml
[9] = Nal (1.0) + Niaziridin 1.0 μg/ml
[10] = Rif (0.05) + Niaziridin 1.0 μg/ml
[11] = Tet (2.0) + Niaziridin 1.0 μg/ml
[12] = Amp (0.01) + Niaziridin 1.0 μg/ml
[13] = Nal (2.0) + Niaziridin 1.0 μg/ml
[14] = Tet (1.0) + Niaziridin 1.0 μg/ml
[15] = Table 4, Amp 6 μg/ml + Niaziridin 0.1 μg/ml
[16] = Table 4, Nal 6 μg/ml + Niaziridin 0.1 μg/ml
[17] = Table 4, Rif 20 μg/ml + Niaziridin 0.1 μg/ml
[18] = Table 4, Rif 30 μg/ml + Niaziridin 0.1 μg/ml
[19] = Table 4, Tet 1 μg/ml + Niaziridin 0.1 μg/ml
[20] = Table 4, Tet 2 μg/ml + Niaziridin 0.1 μg/ml

CC1(C)S[C@@H]2[C@H](NC(=O)[C@H](N)c3ccccc3)C(=O)N2[C@H]1C(=O)O [Amp, ampicillin, reference compound]
% Survival (M. smegmatis (MC^2 155); Amp (0.1) alone): 25.0%
Titre (M. smegmatis (MC^2 155); Amp (0.1) alone): 1.0 × 10^8
% Survival (B. subtilis (MTCC121); Amp (0.01) alone): 72.5%
Titre (B. subtilis (MTCC121); Amp (0.01) alone): 2.9 × 10^8
% Survival (E. coli (CA8000); Table 4, Amp 6 μg/ml alone): 3.69%
Titre (E. coli (CA8000); Table 4, Amp 6 μg/ml alone): 8.5 × 10^6

Clc1ccccc1C(c1ccccc1)(c1ccccc1)n1ccnc1 [Clotrimazole, clotrimazole, reference compound]
Cfu/ml at 36 h (C. albicans; Clotrimazole alone 0.5 ug/ml): 23.6 × 10^5 Cfu/ml

CCn1cc(C(=O)O)c(=O)c2ccc(C)nc21 [Nal, nalidixic acid, reference compound]
% Survival (M. smegmatis (MC^2 155); Nal (1.0) alone): 92.5%
Titre (M. smegmatis (MC^2 155); Nal (1.0) alone): 3.7 × 10^8
% Survival (B. subtilis (MTCC121); Nal (2.0) alone): 7.75%
Titre (B. subtilis (MTCC121); Nal (2.0) alone): 3.1 × 10^7
% Survival (E. coli (CA8000); Table 4, Nal 6 μg/ml alone): 1.0%
Titre (E. coli (CA8000); Table 4, Nal 6 μg/ml alone): 6.0 × 10^6

CC1OC(Oc2ccc(CC#N)cc2O)C(O)C(O)C1O (centres unmarked) [Niaziridin, NIAZIRIDIN]
Fold enhancement in DNA transformation (E. coli DH5α; [6]): 1.9 fold
Titre (transformants) (E. coli DH5α; [6]): 16.0 10^4
Fold enhancement in DNA transformation (E. coli DH5α; [7]): 2.3 fold
Titre (transformants) (E. coli DH5α; [7]): 20.0 10^4
Fold enhancement in DNA transformation (E. coli CA8000; [6]): 1.9 fold
Titre (transformants) (E. coli CA8000; [6]): 8.30 10^3
Fold enhancement in DNA transformation (E. coli CA8000; [7]): 5.5 fold
Titre (transformants) (E. coli CA8000; [7]): 24.0 10^3
Enhancement of antimycobacterial activity of rifampicin (Growth Index) ([1]; FIG. 1): able to enhance
Enhancement of antimycobacterial activity of isoniazid (Growth Index) ([1]; FIG. 2): able to enhance
% Survival (M. smegmatis (MC^2 155); [8]): 5.25%
Folds enhancement in killing (M. smegmatis (MC^2 155); [8]): 4.7 folds
Titre (M. smegmatis (MC^2 155); [8]): 2.1 × 10^7
% Survival (M. smegmatis (MC^2 155); [9]): 75.0%
Folds enhancement in killing (M. smegmatis (MC^2 155); [9]): 1.2 folds
Titre (M. smegmatis (MC^2 155); [9]): 3.0 × 10^8
% Survival (M. smegmatis (MC^2 155); [10]): 16.75%
Folds enhancement in killing (M. smegmatis (MC^2 155); [10]): 1.9 folds
Titre (M. smegmatis (MC^2 155); [10]): 6.7 × 10^6
% Survival (M. smegmatis (MC^2 155); [11]): 7.5%
Folds enhancement in killing (M. smegmatis (MC^2 155); [11]): 4.0 folds
Titre (M. smegmatis (MC^2 155); [11]): 3.0 × 10^7
Phage titer, Pellet ([2]; MOI 5): 7.7 10^7 pfu
Phage titer, Supernatant ([2]; MOI 5): 7.7 10^7 pfu
Phage titer, Pellet ([2]; MOI 10): 18.0 10^7 pfu
Phage titer, Supernatant ([2]; MOI 10): 8.0 10^7 pfu
Cfu/ml at 36 h (C. albicans; Clotrimazole 0.5 ug/ml + Niaziridin 10 ug/ml): 4.5 × 10^5 Cfu/ml
Fold enhancement of lethal activity (C. albicans; Clotrimazole 0.5 ug/ml + Niaziridin 10 ug/ml, 36 h): 5.2 fold
% Survival (B. subtilis (MTCC121); [12]): 14.2%
Folds enhancement in killing (B. subtilis (MTCC121); [12]): 5.1 folds
Titre (B. subtilis (MTCC121); [12]): 5.7 × 10^7
% Survival (B. subtilis (MTCC121); [13]): 1.1%
Folds enhancement in killing (B. subtilis (MTCC121); [13]): 7.0 folds
Titre (B. subtilis (MTCC121); [13]): 4.6 × 10^6
% Survival (B. subtilis (MTCC121); [10]): 2.7%
Folds enhancement in killing (B. subtilis (MTCC121); [10]): 19.4 folds
Titre (B. subtilis (MTCC121); [10]): 1.1 × 10^7
% Survival (B. subtilis (MTCC121); [14]): 5.0%
Folds enhancement in killing (B. subtilis (MTCC121); [14]): 3.5 folds
Titre (B. subtilis (MTCC121); [14]): 2.0 × 10^7
Enhancement of activity of rifampicin, ampicillin, nalidixic acid (B. subtilis (MTCC121); range over both Gram (+) strains (B. subtilis and M. smegmatis)): 1.2-19 folds
% Survival (E. coli (CA8000); [15]): 0.69%
Fold enhancement in killing over antibiotic alone (E. coli (CA8000); [15]): 5.3 fold
Titre (E. coli (CA8000); [15]): 1.6 × 10^6
% Survival (E. coli (CA8000); [16]): 0.02%
Fold enhancement in killing over antibiotic alone (E. coli (CA8000); [16]): 50.0 fold
Titre (E. coli (CA8000); [16]): 1.2 × 10^5
% Survival (E. coli (CA8000); [17]): 0.0035%
Fold enhancement in killing over antibiotic alone (E. coli (CA8000); [17]): 38.8 fold
Titre (E. coli (CA8000); [17]): 3.9 × 10^3
% Survival (E. coli (CA8000); [18]): 0.003%
Fold enhancement in killing over antibiotic alone (E. coli (CA8000); [18]): 12.6 fold
Titre (E. coli (CA8000); [18]): 3.0 × 10^3
% Survival (E. coli (CA8000); [19]): 0.5%
Fold enhancement in killing over antibiotic alone (E. coli (CA8000); [19]): 2.3 fold
Titre (E. coli (CA8000); [19]): 3.0 × 10^6
% Survival (E. coli (CA8000); [20]): 0.11%
Fold enhancement in killing over antibiotic alone (E. coli (CA8000); [20]): 5.2 fold
Titre (E. coli (CA8000); [20]): 7.5 × 10^5
Enhancement of activity of commonly used antibiotics (rifampicin, tetracycline, nalidixic acid etc) (E. coli (CA8000); text summary of Table 4): enhanced activity
Uptake of nutrients like Vitamine B12 through the intestinal gut membrane [3]: able to facilitate the uptake

CO[C@H]1/C=C/O[C@@]2(C)Oc3c(C)c(O)c4c(O)c(c(/C=N/N5CCN(C)CC5)c(O)c4c3C2=O)NC(=O)/C(C)=C\C=C\[C@H](C)[C@H](O)[C@@H](C)[C@@H](O)[C@@H](C)[C@H](OC(C)=O)[C@@H]1C [Rif, rifampicin]
% Survival (M. smegmatis (MC^2 155); Rif (0.05) alone): 32.5%
Titre (M. smegmatis (MC^2 155); Rif (0.05) alone): 1.3 × 10^7
% Survival (B. subtilis (MTCC121); Rif (0.05) alone): 52.5%
Titre (B. subtilis (MTCC121); Rif (0.05) alone): 2.1 × 10^8
% Survival (E. coli (CA8000); Table 2, Rif 20 μg/ml alone): 24.2%
Titre (E. coli (CA8000); Table 2, Rif 20 μg/ml alone): 3.4 × 10^7
% Survival (E. coli (CA8000); Table 2, Rif 30 μg/ml alone): 21.4%
Titre (E. coli (CA8000); Table 2, Rif 30 μg/ml alone): 3.0 × 10^7
% Survival (E. coli (CA8000); Table 3, Rif 20 μg/ml alone): 40.0%
Titre (E. coli (CA8000); Table 3, Rif 20 μg/ml alone): 1.00 × 10^8
% Survival (E. coli (CA8000); Table 3, Rif 30 μg/ml alone): 23.3%
Titre (E. coli (CA8000); Table 3, Rif 30 μg/ml alone): 5.81 × 10^7
% Survival (E. coli (CA8000); Table 4, Rif 20 μg/ml alone): 0.0136%
Titre (E. coli (CA8000); Table 4, Rif 20 μg/ml alone): 1.5 × 10^4
% Survival (E. coli (CA8000); Table 4, Rif 30 μg/ml alone): 0.038%
Titre (E. coli (CA8000); Table 4, Rif 30 μg/ml alone): 3.8 × 10^4

CN(C)[C@@H]1C(=O)C(C(N)=O)=C(O)[C@@]2(O)C(=O)C3=C(O)c4c(O)cccc4[C@@](C)(O)[C@H]3C[C@@H]12 [Tet, tetracycline, reference compound]
% Survival (M. smegmatis (MC^2 155); Tet (2.0) alone): 30.0%
Titre (M. smegmatis (MC^2 155); Tet (2.0) alone): 1.2 × 10^8
% Survival (B. subtilis (MTCC121); Tet (1.0) alone): 17.5%
Titre (B. subtilis (MTCC121); Tet (1.0) alone): 7.0 × 10^7
% Survival (E. coli (CA8000); Table 4, Tet 1 μg/ml alone): 1.16%
Titre (E. coli (CA8000); Table 4, Tet 1 μg/ml alone): 7.0 × 10^6
% Survival (E. coli (CA8000); Table 4, Tet 2 μg/ml alone): 0.58%
Titre (E. coli (CA8000); Table 4, Tet 2 μg/ml alone): 3.5 × 10^6

CCOC(=S)NCc1ccc(OC2OC(C)C(O)C(O)C2O)cc1 (centres unmarked) [niazimicin]
Hypotensive and bradycardiac effect [4]: produced hypotensive and bradycardiac effect

COC(=S)NCc1ccc(O[C@@H]2O[C@@H](C)[C@H](O)[C@@H](O)[C@H]2O)cc1 [niazinin A]
Hypotensive and bradycardiac effect [4]: produced hypotensive and bradycardiac effect

O=C(/C=C/C=C/c1ccc2c(c1)OCO2)N1CCCCC1 [piperine]
Comparative levels and peak concentration of the drugs in the presence of piperine [5]: higher

niaziminin A
Hypotensive and bradycardiac effect [4]: produced hypotensive and bradycardiac effect

niaziminin B
Hypotensive and bradycardiac effect [4]: produced hypotensive and bradycardiac effect

niazinin B
Hypotensive and bradycardiac effect [4]: produced hypotensive and bradycardiac effect
